Reference: patent publication US7521449B2, “4-arylmorpholin-3-one derivatives, their preparation and therapeutic use thereof” (Sanofi-Aventis, priority 2004, dated 2009)
pKi: −log10 of the molar value. Where a name gives a salt, the structure may show the parent alone.

What was measured:
[1] = target: T1, cloned human NK2 receptors (Homo sapiens, UniProt P21452); assay: Inhibition of the binding of [125I]His-neurokinin A to cloned human NK2 receptors expressed by CHO cells; settings: binding of [125I]His-NKA, cloned human NK2 receptors expressed in CHO cells; read-out: inhibition constant Ki
T1 construct: expressed in transfected cells; host or cells: CHO cells
T1 sequence (P21452 1-398): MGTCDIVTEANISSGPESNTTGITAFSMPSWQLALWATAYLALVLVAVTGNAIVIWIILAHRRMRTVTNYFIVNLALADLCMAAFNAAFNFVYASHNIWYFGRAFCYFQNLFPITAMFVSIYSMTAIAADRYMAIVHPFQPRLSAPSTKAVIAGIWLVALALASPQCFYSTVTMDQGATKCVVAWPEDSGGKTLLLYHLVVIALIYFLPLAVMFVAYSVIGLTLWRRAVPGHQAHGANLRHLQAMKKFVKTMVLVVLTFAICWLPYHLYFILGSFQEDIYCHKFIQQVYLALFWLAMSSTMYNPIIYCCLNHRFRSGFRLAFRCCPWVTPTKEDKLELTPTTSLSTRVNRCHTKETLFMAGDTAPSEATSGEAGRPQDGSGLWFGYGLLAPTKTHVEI
Description: The affinity of the compounds for the tachykinin receptors NK2 was evaluated in vitro by measuring the inhibition of the binding of [^125I]His-neurokinin A ([^125I]His-NKA) to cloned human NK2 receptors expressed by CHO cells (Y. Takeda et al., J. Neurochem., 1992, 59, 740-745).
The trials were performed according to […]

NK2 receptor = target: T2, NK2 receptor (Mus musculus, UniProt P30549); assay: Spinning behavior caused by injection of [Nle10]NKA(4-10) into the striatum of mice, compounds administered orally; format: in vivo
T2 construct: from tissue; host or cells: mouse striatum (in vivo)
T2 sequence (P30549 1-384): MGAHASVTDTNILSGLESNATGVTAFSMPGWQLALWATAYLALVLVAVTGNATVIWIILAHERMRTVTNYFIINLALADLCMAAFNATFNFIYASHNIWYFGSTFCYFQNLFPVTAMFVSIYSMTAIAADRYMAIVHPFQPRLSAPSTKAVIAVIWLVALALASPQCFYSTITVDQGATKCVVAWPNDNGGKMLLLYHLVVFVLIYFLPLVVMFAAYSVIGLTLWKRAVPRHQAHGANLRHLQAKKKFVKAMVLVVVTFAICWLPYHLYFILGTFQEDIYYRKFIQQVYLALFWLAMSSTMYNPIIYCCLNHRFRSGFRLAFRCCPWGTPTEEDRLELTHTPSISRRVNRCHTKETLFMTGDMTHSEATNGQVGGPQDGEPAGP
Description: The compounds of the present invention were also evaluated in vivo in a model of pharmacodynamics.
In mice, injection into the striatum of a specific agonist of the NK2 receptor, [Nle^10]NKA(4-10), causes a spinning behavior, which is inhibited in a dose-dependent manner by the compounds according to the invention administered orally. This test was performed according to Poncelet et al. (Neurosci. Lett., 1993, 149, 40-42).

In the case of `CC(=O)NC1(c2cccc(F)c2)CCN(CCC2(c3ccc(Cl)c(Cl)c3)CN(c3ccccc3)C(=O)CO2)CC1` (single isomer, unassigned) [Compound 3, N-[1-[2-[2-(3,4-Dichlorophenyl)-5-oxo-4-phenylmorpholin-2-yl]ethyl]-4-(3-fluorophenyl)piperid-4-yl]acetamide hydrochloride, dextrorotatory isomer], the pKi [1] was 9.80, the “antagonism of the NK2 receptors (blocking the pharmacological effects caused by neurokinin A)” value (NK2 receptor; conclusion from the pharmacological results) was “antagonists of the NK2 receptors” and the ED50 (NK2 receptor; mouse, po, mice, orally, spinning behavior caused by intrastriatal [Nle10]NKA(4-10), read-out: 50 effective dose (ED50)) was 0.023 mg/kg.
